Experimental data: US20210128537A1, “T-TYPE CALCIUM CHANNEL MODULATORS AND METHODS OF USE THEREOF” (Praxis Precision Medicines, inc., priority 2016, published 2021)
Like-named read-outs stand apart in the source and are kept apart here.

Experiments:
[1] = test system: fully kindled rats; assay: Amygdala kindling model, anti-seizure testing in fully kindled rats; format: in vivo, rat; conditions: for primary after discharge: all four doses of Z944, ETX 100 mg/kg, compared to vehicle (p>0.5)
Method: Animals were implanted with EEG recording electrodes and with a stimulating bipolar electrode in the left basolateral amygdaloid nucleus using the coordinates AP±3.0 mm, ML±5.9 mm, DV±6.0 mm. The after discharge threshold (ADT) for each animal was determined by administering a stimulation (frequency=60.1 Hz; duration=1000 μs) at one minute intervals until a seizure was clicited. The amplitude of the stimulation was started at 0.02 mA with increments of 0.02 mA; the stimulations were stopped when the animal experienced a seizure of ≥6 second duration, or if the amplitude of 0.40 mA was reached without the occurrence of a seizure. […] Kindling was performed twice a day for five days per week with an endpoint of 30 stimulations or until the animal presented five class V seizures (referred to as fully kindled). The seizure severity was classified from 0 (less severe) to V (most severe) according to the Racine Scale (Racine, 1972b). Sham kindled animals were handled the same way as the kindled animals, although no electrical stimulation was applied. An animal is classified as fully kindled once it has experienced 5 class V seizures.
Drug testing was performed twice a week until all animals had received each of the seven treatments, Z944 (5 mg/kg, 10 mg/kg, 30 mg/kg and 100 mg/kg), vehicle (10% DMSO/90% Na^+-CMC or CBZ vehicle 20% DMSO/40% propylene glycol/40% saline), ETX (100 mg/kg) or CBZ (30 mg/kg). Prior to drug testing each day, animals were subjected to a maximum of three pre-drug stimulations 30 minutes apart. The animals qualified for testing on that particular day if a class IV or V seizure was elicited in at least 2 out of 3 pre-drug stimulations. Stimulations consisted of a 1 second train of 1 ms biphasic square wave pulses at a frequency of 60 Hz with current amplitude based on each animal ADT that elicited a seizure. Thirty minutes after the last pre-drug stimulation, the animals received an IP injection of one of the seven treatments in a randomized manner at a dose volume of 5 ml/kg. Six post-drug stimulations were administered to each animal, the first stimulation was given 15 minutes post drug injection (to allow brain penetration of the drugs) and the following five stimulations were delivered in 30 minutes intervals thereafter with the seizure class elicited being recorded after each post-drug stimulation. The duration of the primary and total seizures, if any, were recorded. An investigator blinded to the drug treatment analyzed all EEG recordings. Primary after discharge is the duration of the seizure elicited from the kindling stimulation. Total after discharge is the total seizure duration including any secondary seizures that occur after the primary after discharge. Primary after discharge duration and total seizure duration were recorded and averaged for the 6 post-drug stimulations.
Animal weight and behaviour when handled were monitored for the duration of the experimental period. Additionally, animals were assessed by observation for any adverse effects of drugs on grooming, fur appearance, gait, and excretion.

[2] = molecular target: hCaV3.2 (Homo sapiens, UniProt O95180); assay: Inactivated channel state FLIPR assay, concentration-dependent inhibition of hCaV3.2; format: cell-based; conditions: for IC50: hCaV3.2, inactivated channel state FLIPR, n=4 wells per concentration; for slope of the concentration-inhibition curve: logistic function fit
hCaV3.2, sequence (O95180 whole entry): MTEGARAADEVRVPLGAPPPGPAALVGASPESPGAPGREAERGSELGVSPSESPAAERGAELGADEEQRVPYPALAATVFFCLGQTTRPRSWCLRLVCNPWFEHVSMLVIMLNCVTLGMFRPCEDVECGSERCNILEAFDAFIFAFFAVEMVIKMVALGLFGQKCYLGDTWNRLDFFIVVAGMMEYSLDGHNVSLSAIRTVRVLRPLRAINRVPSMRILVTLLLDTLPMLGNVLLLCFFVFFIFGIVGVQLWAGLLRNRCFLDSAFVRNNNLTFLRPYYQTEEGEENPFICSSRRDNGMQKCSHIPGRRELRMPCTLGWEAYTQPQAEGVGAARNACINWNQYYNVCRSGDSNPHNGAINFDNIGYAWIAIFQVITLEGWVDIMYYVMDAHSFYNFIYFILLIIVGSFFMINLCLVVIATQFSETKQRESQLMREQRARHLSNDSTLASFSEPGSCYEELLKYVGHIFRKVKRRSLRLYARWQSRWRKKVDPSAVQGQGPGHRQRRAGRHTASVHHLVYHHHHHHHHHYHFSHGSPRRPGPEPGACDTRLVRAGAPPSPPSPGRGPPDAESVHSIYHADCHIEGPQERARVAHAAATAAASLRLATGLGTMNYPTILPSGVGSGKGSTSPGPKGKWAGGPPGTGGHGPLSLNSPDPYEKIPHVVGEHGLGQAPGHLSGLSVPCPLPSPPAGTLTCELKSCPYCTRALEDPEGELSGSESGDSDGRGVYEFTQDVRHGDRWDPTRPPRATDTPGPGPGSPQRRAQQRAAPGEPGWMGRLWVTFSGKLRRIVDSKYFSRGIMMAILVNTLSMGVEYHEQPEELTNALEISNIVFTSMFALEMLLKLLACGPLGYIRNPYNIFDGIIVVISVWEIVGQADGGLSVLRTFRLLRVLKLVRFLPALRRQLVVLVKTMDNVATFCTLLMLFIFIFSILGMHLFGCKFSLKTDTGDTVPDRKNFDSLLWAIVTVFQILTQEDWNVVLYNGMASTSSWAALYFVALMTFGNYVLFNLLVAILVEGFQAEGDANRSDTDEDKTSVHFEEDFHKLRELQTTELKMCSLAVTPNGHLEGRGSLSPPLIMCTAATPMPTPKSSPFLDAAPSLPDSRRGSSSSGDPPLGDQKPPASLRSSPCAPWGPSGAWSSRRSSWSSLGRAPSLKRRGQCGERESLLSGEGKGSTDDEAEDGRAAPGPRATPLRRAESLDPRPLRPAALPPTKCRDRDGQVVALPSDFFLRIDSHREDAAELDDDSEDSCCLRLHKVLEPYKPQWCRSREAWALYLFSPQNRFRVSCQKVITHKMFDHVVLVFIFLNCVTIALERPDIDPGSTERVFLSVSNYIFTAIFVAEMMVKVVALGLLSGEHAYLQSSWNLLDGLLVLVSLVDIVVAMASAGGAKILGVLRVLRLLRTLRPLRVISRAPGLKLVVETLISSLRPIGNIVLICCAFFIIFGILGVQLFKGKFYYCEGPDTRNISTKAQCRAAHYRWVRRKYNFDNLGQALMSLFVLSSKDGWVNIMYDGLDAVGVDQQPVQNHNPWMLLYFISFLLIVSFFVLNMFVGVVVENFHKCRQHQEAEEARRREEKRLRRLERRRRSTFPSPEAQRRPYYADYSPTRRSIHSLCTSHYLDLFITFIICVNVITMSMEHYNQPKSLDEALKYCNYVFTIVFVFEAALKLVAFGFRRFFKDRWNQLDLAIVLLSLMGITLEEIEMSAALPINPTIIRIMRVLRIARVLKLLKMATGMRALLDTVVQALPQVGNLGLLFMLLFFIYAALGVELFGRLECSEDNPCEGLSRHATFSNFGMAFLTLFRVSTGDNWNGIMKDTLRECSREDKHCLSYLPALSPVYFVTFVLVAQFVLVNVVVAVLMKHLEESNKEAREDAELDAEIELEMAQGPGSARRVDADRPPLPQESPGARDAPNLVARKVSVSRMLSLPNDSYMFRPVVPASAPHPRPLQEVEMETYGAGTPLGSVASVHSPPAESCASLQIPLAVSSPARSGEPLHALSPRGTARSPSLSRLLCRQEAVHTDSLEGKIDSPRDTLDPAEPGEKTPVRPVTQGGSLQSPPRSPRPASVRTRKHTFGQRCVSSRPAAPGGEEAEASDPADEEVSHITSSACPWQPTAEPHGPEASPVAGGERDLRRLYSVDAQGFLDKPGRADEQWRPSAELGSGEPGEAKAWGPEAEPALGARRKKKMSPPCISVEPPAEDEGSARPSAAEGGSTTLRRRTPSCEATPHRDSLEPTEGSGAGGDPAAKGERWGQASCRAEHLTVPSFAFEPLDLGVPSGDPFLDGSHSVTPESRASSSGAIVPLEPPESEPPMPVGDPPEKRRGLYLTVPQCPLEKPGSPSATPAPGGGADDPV

[3] = test system: absence seizures in patients; conditions: cited from earlier work
[4] = test system: post-SE rats; assay: Morris water maze in post-SE rats; format: in vivo, rat; conditions: Z944 60 mg/kg/day, levetiracetam 200 mg/kg/day for 4 weeks
Method: All behavioural tests were performed in a light-controlled (˜110 lux), closed, quiet and clean room in the. Behavioural testing was performed in a blinded manner to the treatment groups. All of the behavioural tests were video recorded for future analysis. OF, EPM and MWM sessions were filmed using a digital camera mounted above the centre of the arena, which was connected to a computer for the recording and objective analysis of digitized behavioural tests (EthoVision 3.0.15, Noldus). The first behavioural test was performed one week after the last EEG recording. The different behavioural tests/session were performed 24 hours apart from each other. All tests were scored by an experienced observer who was blind to the experimental conditions of the animals.
The MWM is a circular black PVC plastic pool of 160 cm diameter which is filled to a depth of either 2.5 cm above a 10 cm diameter hidden platform water at 25±1° C. The platform is located in the centre of the South-West quadrant during the first 3 sessions and changed to North-East quadrant for the remaining sessions. Visual cues are placed in the main 4 cardinal points, consisting of large black and white symbols that serve as orientation landmarks for the rats. […] The latency to find the escape platform, speed and strategic path used by the animal to locate the platform are recorded. […]

[5] = test system: post-SE rats; assay: Kainic acid induced post-status epilepticus model, video-EEG seizure analysis; format: in vivo, rat; conditions: osmotic pump 4 weeks; Z944 60 mg/kg/day, levetiracetam 200 mg/kg/day
Method: Pumps were filled with either Z944 to deliver a daily dose of 60 mg/kg, levetiracetam to deliver a daily dose of 200 mg/kg or vehicle. For the drug tolerability study, osmotic pumps continuously either Z944, levetiracetam or vehicle for 7 days and for the post-SE study osmotic pumps delivered continuously the different treatments for 28 days.
FIG. 11 summarizes the different methods used on this experimental paradigm.
Animals were implanted with subdural EEG recording electrodes and one week after surgery, the animals were connected using cables that allowed them free movement around their cage. A repeated low dose KA administration protocol was used. Rats were injected i.p. with an initial dose of KA 7.5 mg/kg plus 3 ml of normal saline to prevent dehydration. Animals were monitored for 45 minutes for EEG and behavioural seizures based on the Racine scale. […] This was repeated up to 2 times every 45 minutes. An animal was eliminated from the experiment if it didn't show a stable self-sustained SE after a maximum KA total dose of 15 mg/kg. Two sham groups were treated identically but received saline injections instead of KA. After four hours of sustained electroencephalographic and behavioural seizures the animals were randomly allocated to one of the five treatment groups: sham+vehicle (n=6), sham+Z944 (n=6), post-SE+vehicle (n=8), post-SE+Z944 (n=8), post-SE+levetiracetam (n=9).
Animals were anesthetized and implanted with subcutaneous osmotic pumps containing either vehicle Z944 (60 mg/kg/day), or levetiracetam (200 mg/kg/day) that delivered the treatment continuously for 4 weeks. Immediately after the pump implantation, SE was stopped with diazepam (5 mg/kg/dose).
vEEG recordings commenced at least 4 h prior the induction of SE to provide baseline recordings. The video-EEG recordings continued for the whole duration of the treatment period, i.e. four weeks after the termination of the SE. […] EEG analysis was performed in a blinded manner and confirmed by two different observers. All EEG recordings were visually and manually annotated using Profusion 3 software. A seizure was defined as an episode of rhythmic spiking activity that was three times the baseline amplitude and a frequency >5 Hz that lasted at least 10 s. The end of a seizure was determined as the last spike. The average number of seizures per day, average seizure duration and seizure class (severity) were analysed.

| IC50 [2] [mM] | slope of the concentration-inhibition curve [2] | SMILES | primary after discharge ([1]; IP, CBZ 30 mg/kg) | further results |
| --- | --- | --- | --- | --- |
| 70 | – | CCC1(C)CC(=O)NC1=O (stereo not drawn) [Ethosuximide, ethosuximide, reference compound] | did not affect the primary after discharge | – |
| – | 4.4 | CCCC(CCC)C(=O)[O-].[Na+] [Valproate, sodium valproate] | – | patients whose seizures were completely controlled ([3]; at 12 months): 44%; patients whose seizures were completely controlled ([3]; at 16 weeks, video-EEG recordings): 58% |
| 0.00012 | 0.8 | CC(C)(C)NC(=O)CN1CCC(CNC(=O)c2cccc(Cl)c2)CC1 [Z941] | – | – |

The next lines start with the molecule.

| SMILES | IC50 [2] [mM] | slope of the concentration-inhibition curve [2] | primary after discharge ([1]; IP, CBZ 30 mg/kg) | further results |
| --- | --- | --- | --- | --- |
| NC(=O)N1c2ccccc2C=Cc2ccccc21 [Carbamazepine, carbamazepine, reference compound] | – | – | did not affect the primary after discharge | seizure class elicited (Racine scale) ([1]; IP, Z944 5, 10, 30, 100 mg/kg, CBZ 30 mg/kg, compared to vehicle): significantly reduced the class of seizure elicited; adverse effects (sedation scale 0-4) compared to vehicle ([1]; Z944 100 mg/kg, CBZ 30 mg/kg IP, p<0.01): significantly higher adverse effects |
| CC[C@@H](C(N)=O)N1CCCC1=O [levetiracetam, reference compound] | – | – | – | time to find the hidden platform (cognition) [4]: took significantly longer to find the hidden platform; neurological adverse effects after prolonged treatment [5]: only transient and minor neurological adverse effects |
